Square brackets hold non-standard residues; d marks the D form. Peptide text beside a SMILES is read from it. Cha = N[C@@H](CC1CCCCC1)C(=O)O

The target of assay [1] is T1, HLA-A*0201 (Homo sapiens, UniProt P04439, D140Y/D185E/D98H/E176V/E277Q/G131W/G231S/I119V/I121R/I166T/I218V/L300P/L318F/N151K/N90K/P208A/P217A/Q86G/Q94H/R138H/R169H/T345S). The experiment in a line: Peptide binding using T2 cells (affinity to HLA-A*0201). More on the design: endogenous in cells; host or cells: T2 cells. The settings on record: peptide concentration giving 50% of the saturation signal on T2 cells.

The test system of assay [2] is T cell lines against natural epitope SSX-241-49. As to the kind of experiment: Cross-reactivity and functional avidity: IFN-gamma production by T cell lines raised against natural SSX-2 41-49. It is filed as cell-based, HHD transgenic mice. The settings on record: T cells raised against native SSX-2 41-49 stimulated with analog, native = 1, lower = more active.
The target of assay [3] is T1, HLA-A*0201. As to the kind of experiment: iTopia affinity assay (ED50). It is filed as binding. The source says: Avidin-coated microtiter plates containing class I monomer loaded with a so-called placeholder peptide were used to evaluate peptide binding, affinity and off-rate. The monomer-coated plates were supplied as part of the iTopia Epitope Discovery System Kit (Beckman Coulter, Inc., San Diego, Calif., USA). Assay buffers, anti-MHC-FITC mAb and beta2-microglobulin and control peptides were also supplied with the kits.
Plates were read on the fluorometer. Sigmoidal dose response curves were generated using Prism software.

Assay [4] concerns T cell line specific for the native epitope PRAME425-433. The experiment in a line: Cross-reactivity: IFN-gamma secretion from T cell line specific for native PRAME425-433. As to conditions: analog peptide at approximately 0.304 (so in the source); normalized to native peptide. It is filed as cell-based, HHD transgenic mice. How it is done:
At 7 days after the last boost, the mice were sacrificed and a suspension of splenocytes prepared at 5×10^6 […] cells/ml in complete HL-1 medium. Cells were incubated with different concentrations of peptide for 48 hours in flat-bottomed 96-well plates (200 μl/well) and for an additional 24 hours with rIL-2 at 10 U/ml added to the wells. The supernatant was harvested and the concentration of IFN-gamma assessed by standard methods such as ELISA.
The analogs listed in FIGS. 26-28 were tested for various properties such as improved affinity and stability of binding, cross-reactivity with the native epitope, and immunogenicity as follows in Examples 40-48. […] The observed affinities of the analogs are reported as % binding (compared to the positive control) and ED50, and stability of binding as half time of dissociation. Cross reactivity with the native epitope was assessed by using the analog peptides to stimulate IFN-gamma secretion from a T cell line specific for the native epitope, essentially as described in Example 6. The data shown in FIGS. 26-28 were generated by stimulating with analog peptide at approximately 0.304. […] In some cases, the reported values are the average of two determinations.

In the case of `CC[C@H](C)[C@H](NC(=O)[C@H](CCCCN)NC(=O)[C@H](CCC(=O)O)NC(=O)[C@H](CO)NC(=O)[C@H](Cc1cccc2ccccc12)NC(=O)[C@@H](N)CCCCN)C(=O)N[C@@H](Cc1ccccc1)C(=O)N[C@@H](Cc1ccc(O)cc1)C(=O)N[C@H](C(=O)O)C(C)C` [SSX2 41-49 (A42(Nal-1)), KNal-1SEKIFYV], the “Half-maximal Binding” value on HLA-A*0201 [1] is on record as “N/B”. Same read-out and setting: under `CC[C@H](C)[C@H](NC(=O)[C@H](CCCCN)NC(=O)[C@H](CCC(=O)O)NC(=O)[C@H](CO)NC(=O)[C@H](C)NC(=O)[C@@H](N)CC1CCCCC1)C(=O)N[C@@H](Cc1ccccc1)C(=O)N[C@@H](Cc1ccc(O)cc1)C(=O)N[C@H](C(=O)O)C(C)C` [SSX2 41-49 (K41(Cha))] (H-[Cha]ASEKIFYV-OH) stands “N/B”. Consider `CC[C@H](C)[C@H](NC(=O)[C@H](CCCCN)NC(=O)[C@H](CCC(=O)O)NC(=O)[C@H](CO)NC(=O)[C@@H](NC(=O)[C@@H](N)Cc1ccccc1)C(C)C)C(=O)N[C@@H](Cc1ccccc1)C(=O)N[C@@H](Cc1ccc(O)cc1)C(=O)N(C)[C@H](C(=O)O)C(C)C` [SSX2 41-49 (K41F, A42V, V49MeVal)], for which, in assay [2], the “Cross-reactivity and fct avidity (native to analogs)” value is reported as 10. Take “Lys P1 analog: PRAME425-433 analog with Lys substituted for the Ser at the P1 position (KLLQHLIGL; UniProt P78395 425-433, looked up, variant S425K)”: the “Binding affinity (ED50) relative to native peptide (in words)” value with HLA-A*0201 [3] is reported as “reduced by almost 6-fold”. Besides, the “IFN-γ elicited, relative to native peptide” value in assay [4] worked out at 40%.

The values are drawn from patent US8653237B2, “Peptide analogues” (MannKind Corporation, priority 2005, dated 2014).
